We go through seven molecules from PubChem BioAssay (NCI).

The structures appear in SMILES notation.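 Step 1: Grow cells in 96-well plates. Step 2: Expose to compound for 48 hours at 5 concentrations. Step 3: Interpolate endpoints linearly; if unreached, use highest concentration. TGI denotes the concentration required for complete inhibition of growth.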

Common to all, as to experiment: NCI-60 cell line screen, 48 h
Assay [1] has as its system ACHN renal.
Assay [2] relates to UO-31 renal.
Assay [3] concerns SW-620 colon.
In assay [4] the test system is NCI-H460 lung.
Assay [5] concerns OVCAR-5 ovarian.
Assay [6] relates to NCI/ADR-RES ovarian.
The test system of assay [7] is DU-145 prostate.
The test system of assay [8] is UACC-62 melanoma.
In assay [9] the test system is SF-539 CNS.
Assay [10] has as its system MCF7 breast.
The test system of assay [11] is M14 melanoma.
The subject of assay [12] is U251 CNS.
Assay [13] relates to SF-268 CNS.
In assay [14] the test system is T-47D breast.
Assay [15] relates to A498 renal.
In assay [16] the test system is NCI-H522 lung.
Assay [17] relates to SR leukemia.
Assay [18] has as its system SNB-19 CNS.
Assay [19] concerns SN12C renal.
The subject of assay [20] is NCI-H226 lung.

For the molecule `Cc1cc(Cc2c(F)c(F)c(C(c3cc(C)no3)c3c(F)c(F)c(F)c(F)c3F)c(F)c2F)on1` (stereo not given), the TGI in [1], in assay [2], in assay [3], in assay [4], in assay [5] and in assay [6] was above 100 µM throughout. The TGI in assay [7], in assay [8], in assay [9], in assay [10], in assay [11] and in assay [12] was above 100 µM throughout. The TGI in assay [13], in assay [14], in assay [15], in [16], in assay [17] and in [18] was above 100 µM throughout. Moreover, the TGI in assay [19] and in assay [20] was above 100 µM throughout.

For the molecule `O=C(CCCCCCC(=O)Nc1cccnc1)NO`, the TGI in assay [1] was above 92.2 µM; in assay [2], above 100 µM; in [3], above 100 µM; in assay [4] it was above 100 µM; in [5], above 32.1 µM; in [6], 10.1 µM. Moreover, the TGI in assay [7] is above 31.5 µM; in assay [8] it was 18.5 µM; in assay [9], above 100 µM; in [10], above 100 µM; in assay [11] it was above 56 µM; in assay [12] it was above 54.8 µM. Also, the TGI in assay [13] is above 61 µM; in assay [14], 8.12 µM; in assay [15], above 100 µM; in assay [16], 17.3 µM; in assay [17], above 100 µM; in assay [18], above 100 µM. The TGI was above 38.8 µM in assay [19] and above 100 µM in [20].

For the molecule `CCCCN1C(=O)c2c(-c3sccc3N)sc(-c3sccc3N)c2C1=O`, the TGI in [1] is above 100 µM; in [2], above 51 µM; in [3], above 100 µM; in [4] it was above 100 µM; in assay [5], above 78.9 µM; in [6], above 83.2 µM. For the same molecule, the TGI in assay [7] was above 100 µM; in [8], above 64.6 µM; in [9] it was 32.8 µM; in assay [10] it was above 100 µM; in assay [11], above 100 µM; in assay [12], 51.6 µM. Besides, the TGI in assay [13] is above 74.3 µM; in assay [14], above 100 µM; in [15], 76.8 µM; in assay [16] it was above 100 µM; in assay [17], above 23.1 µM; in assay [18] it was 44.2 µM. In addition, the results for the TGI in [19] and in assay [20] were above 55 µM and 42.7 µM, respectively.

Regarding `COC(=O)c1ccc(C)cc1/C=C1\Cc2ccc(C)cc2C1=O`, the TGI in assay [1] is above 100 µM; in assay [2], 26.3 µM; in [3], 51.3 µM; in assay [4], above 100 µM; in assay [5], 42.3 µM; in [6], above 100 µM. In addition, the TGI is 39 µM in assay [7]; 26.7 µM in assay [8]; 28.3 µM in assay [9]; 40.6 µM in [10]; 33.5 µM in assay [11]; 32.3 µM in assay [12]. In addition, the TGI in assay [13] was determined as 48.4 µM; in assay [14], 69.6 µM; in assay [15] it was 47.9 µM; in [16] it was 45 µM; in assay [17], 9.13 µM; in assay [18], 68.7 µM. Further, the TGI in [19] amounted to 32.9 µM; in assay [20], 24.9 µM.

In the case of `CCN1CCN(c2nc3ccc([N+](=O)[O-])cc3nc2C(=O)c2ccccc2)CC1`, the TGI was 29.3 µM in [1]; 25.2 µM in assay [2]; 41.7 µM in assay [3]; 51.4 µM in assay [4]; 36.1 µM in assay [5]; 29.2 µM in [6]. Besides, the TGI is 33.2 µM in assay [7]; 31.2 µM in assay [8]; 29.7 µM in [9]; 34.8 µM in assay [10]; 25.7 µM in assay [11]; 31.9 µM in assay [12]. In addition, the TGI in assay [13] was 38 µM; in [14], above 100 µM; in assay [15], 73.2 µM; in assay [16], 10.3 µM; in [17], 31.8 µM; in [18], 71.2 µM. The TGI in [19] was 30.9 µM; in assay [20], 33.3 µM.

On to `CC(C)(C)c1cc(C2=NN(c3ccccc3)C(c3ccccc3)C2)cc(C(C)(C)C)c1O` (stereo not given), for which the TGI in assay [1], in assay [2], in assay [3], in [4], in assay [5] and in [6] was above 100 µM throughout. Also, the TGI in assay [7], in [8], in assay [9], in [10], in assay [11] and in [12] was above 100 µM in each case. Further, the TGI in [13], in [14], in assay [15], in [16], in [17] and in [18] was above 100 µM in each case. In addition, the TGI in [19] and in assay [20] was above 100 µM in each case.

For the molecule `Nc1nc(N)c2ncn(Cc3ccccc3CCl)c2n1`, the TGI in assay [1], in assay [2], in [3], in assay [4], in assay [5] and in assay [6] was above 100 µM in each case. Further, the TGI in assay [7], in assay [8], in assay [9], in [10], in assay [11] and in [12] was above 100 µM in each case. Besides, the TGI in assay [13], in assay [14], in [15], in assay [16], in assay [17] and in assay [18] was above 100 µM throughout. For the same molecule, the TGI in [19] and in assay [20] was above 100 µM in each case.
